We go through two compounds from patent publication US10584159B2, “Renilla based biosensors for monitoring biomolecule localization and trafficking in cells” (The Royal Institution for the Advancement of …, priority 2014, dated 2020).

Starred links: 1 amine or outer side, 2 acyl side, 3 side chain; linkers in the order of their positions; H or OH if unused. Positions of bridges follow the written chain, without caps; N, C: chain ends. Non-standard residues stand in square brackets, D forms with d. Residues, ends and D or L forms follow the SMILES beside them. No end group written: not given here. *: point of attachment. Leu(3R-OH,Nα-propionyl) = CCC(=O)N[C@H](C(=O)*)[C@H](O)C(C)C; X1 = CC(C)[C@@H](O[*:3])[C@H](N[*:1])C(=O)[*:2]; NMeT = CN[C@H](C(=O)O)[C@@H](C)O; dPhLac = O=C(O)[C@H](O)Cc1ccccc1; NMeA = CN[C@@H](C)C(=O)O; NMeDha = C=C(NC)C(=O)O

One assay deals with Acetylcholine receptors. Put plainly: PKN-based RhoA activation BRET assay, carbachol stimulation. As to conditions: 100 nM Ubo, 100 μM carbachol 70 s. The assay is classed as cell-based. Here is the method:
PKN-based RhoA activation assay. For FIGS. 25B-D, HEK293SL cells were grown in DMEM supplemented with 6% fetal bovine serum (FBS) and 20 μg/ml gentamycin, at 37° C. Cells were seeded at a density of 7.5×10^5 cells per 100 mm dishes and were transiently transfected the next day with constructs encoding AT1R (3 μg) along with PKN-crib-RlucII (90 ng) and rGFP-CAAX (480 ng) using calcium phosphate method as described previously. After 24 h, cells were detached and seeded onto poly-ornithine-coated 96-well white plates at a density of 25 000 cells per well in media. The next day, cells were washed once with Tyrode's buffer and left in 80 μl of Tyrode's buffer at 37° C. When indicated, cells were treated with Ubo-Qic 100 nM for 30 min or C3 toxin for 3 μg/ml (in FIG. 25I), 4 hours at 37° C. Cell stimulation and BRET measurements were done at RT. BRET signals were monitored by addition of Coel-400a to a final concentration of 5 μM using a Synergy2 (BioTek®) microplate reader. Filter set was 410±80 nm and 515±30 nm for detecting the RlucII Renilla luciferase (donor) and rGFP (acceptor) light emission. […] BRET was measured at 37° C., using a Tristar Microplate Reader (Berthold Technologies) equipped with BRET400-GFP2/10 filter set (acceptor, 515±20 nm; and donor, 400±70 nm filters). […] BRET was measured at 37° C., using a Tristar Microplate Reader (Berthold Technologies).
For orientation: BRET reads energy transfer from a luciferase to a nearby fluorophore.

For the next assay, the system named is Gq. In words: RlucII-tagged Gq translocation to rGFP markers (BRET) with TPαR. The class given is cell-based, human. The settings on record: 100 nM Ubo-Qic 20 min.
The target of the next assay is T1, AT1R (Homo sapiens, UniProt P30556).
T1 construct: expressed in transfected cells; host or cells: HEK293SL
T1 sequence (P30556 1-359): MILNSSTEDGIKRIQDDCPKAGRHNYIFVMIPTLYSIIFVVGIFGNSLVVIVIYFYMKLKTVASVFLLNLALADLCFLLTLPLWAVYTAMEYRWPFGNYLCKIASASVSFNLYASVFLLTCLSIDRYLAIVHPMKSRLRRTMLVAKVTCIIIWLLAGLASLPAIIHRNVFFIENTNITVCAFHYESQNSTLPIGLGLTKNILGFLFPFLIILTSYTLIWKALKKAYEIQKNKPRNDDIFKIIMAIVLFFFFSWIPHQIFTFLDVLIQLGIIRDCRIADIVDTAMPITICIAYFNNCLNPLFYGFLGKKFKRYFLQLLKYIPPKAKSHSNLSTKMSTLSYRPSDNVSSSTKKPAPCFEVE
Put plainly: β-arrestin2 targeting to endosomes BRET (AT1R/βarr2-RlucII/rGFP-endofinFYVE). The assay is classed as cell-based. As to conditions: 40 min. Here is the method:
BRET measurements for FIGS. 1B to 9D, 25D to 25F. The following day of transfection, cells were detached and replated onto poly-ornithine coated white 96-well plate at a density of 25,000 cells per well. The next day, cells were washed once with pre-warmed Tyrode's buffer (140 mM NaCl, 2.7 mM KCl, 1 mM CaCl2, 12 mM NaHCO3, 5.6 mM D-glucose, 0.5 mM MgCl2, 0.37 mM NaH2PO4, 25 mM HEPES, pH 7.4), and then stimulated with either various concentrations of ligands in Tyrode's buffer for the indicated time, or single concentration of ligands for various times at 37° C. For recycling experiment, after stimulating the cells with the ligands for 30 min at 37° C., they were washed either three times with ice-cold Tyrode's buffer or once with Tyrode's buffer/three times with acid (50 mM sodium citrate, pH 4.0)/two times with Tyrode's buffer. All the washing steps were performed on ice. Cells were then further incubated with Tyrode's buffer at 37° C. in a water bath for 45 min. The cell-permeable substrate, coelenterazine 400a was added at a final concentration of 5 μM in Tyrode's buffer 3-4 min before BRET measurements. Measurements were performed by using Synergy2 (BioTek®) microplate reader with a filter set of 410±80 nm and 515±30 nm for detecting the RlucII Renilla luciferase (donor) and GFP10 or rGFP (acceptor) light emissions, respectively. The BRET signal was determined by calculating the ratio of the light intensity emitted by the GFP10 or rGFP over the light intensity emitted by the RlucII. All the BRET measurements were performed in triplicate at 37° C.

As to `C=C1C(=O)N[C@@H](C)C(=O)N(C)[C@@H](C)C(=O)N[C@@H]([C@H](OC(=O)[C@@H](NC(=O)CC)[C@H](O)C(C)C)C(C)C)C(=O)N(C)[C@@H]([C@@H](C)OC)C(=O)O[C@H](C(C)C)[C@H](NC(C)=O)C(=O)O[C@H](Cc2ccccc2)C(=O)N1C` [Ubo-QIC] (Ac-[X1][dPhLac][NMeDha]A[NMeA][X1](Leu(3R-OH,Nα-propionyl))[NMeT](Me); ester 1-C), the “effect on CCh-mediated response (Rho sensor)” value in the assay with Acetylcholine receptors is recorded as “completely blocked”. In addition, in the assay on Gq, the “U46619 response of Gq translocation to rGFP-CAAX Hras, rGFP-CAAX CCIL and Golgi markers after Gq inhibitor” value is “No response is observed”. Turning to “DRVYVHPG [DVG, [Asp^1,Val^5, Gly^8]-AngII]”, the “β-arrestin2 trafficking to endosomes with receptors, compared to AngII” value at AT1R was “weakly promoted”.
